Key:
Test in all cases: kinome screen (33PanQinase)
Assay type in all cases: biochemical
GRK4 = target: T1, GRK4 (Homo sapiens, UniProt P32298)
T1 construct: purchased Reaction Biology Europe GmbH (formerly ProQinase)
Method: (§1) The Kinome Screening was performed by Reaction Biology Europe GmbH (http://reactionbiology.com; Freiburg i. Br., Germany).

ACVR1 = target: T2, ACVR1 (Homo sapiens, UniProt Q04771)
T2 construct: purchased Reaction Biology Europe GmbH (formerly ProQinase)
T2 sequence (Q04771 21-509): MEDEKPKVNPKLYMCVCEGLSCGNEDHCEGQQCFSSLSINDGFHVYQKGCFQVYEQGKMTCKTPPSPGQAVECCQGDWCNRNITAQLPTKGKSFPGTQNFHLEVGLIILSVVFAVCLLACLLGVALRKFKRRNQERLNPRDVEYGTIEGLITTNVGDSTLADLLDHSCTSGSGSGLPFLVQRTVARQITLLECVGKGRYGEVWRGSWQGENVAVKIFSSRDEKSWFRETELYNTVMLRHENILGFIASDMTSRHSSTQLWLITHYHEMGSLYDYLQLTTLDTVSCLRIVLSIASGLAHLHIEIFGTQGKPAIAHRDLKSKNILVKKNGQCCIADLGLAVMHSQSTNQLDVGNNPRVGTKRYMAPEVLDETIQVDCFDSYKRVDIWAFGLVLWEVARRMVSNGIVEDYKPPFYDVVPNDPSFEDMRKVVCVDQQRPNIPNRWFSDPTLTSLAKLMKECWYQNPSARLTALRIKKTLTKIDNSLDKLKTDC
Method: as §1

GRK7 = target: T3, GRK7 (Homo sapiens, UniProt Q8WTQ7)
T3 construct: purchased Reaction Biology Europe GmbH (formerly ProQinase)
T3 sequence (Q8WTQ7 1-553): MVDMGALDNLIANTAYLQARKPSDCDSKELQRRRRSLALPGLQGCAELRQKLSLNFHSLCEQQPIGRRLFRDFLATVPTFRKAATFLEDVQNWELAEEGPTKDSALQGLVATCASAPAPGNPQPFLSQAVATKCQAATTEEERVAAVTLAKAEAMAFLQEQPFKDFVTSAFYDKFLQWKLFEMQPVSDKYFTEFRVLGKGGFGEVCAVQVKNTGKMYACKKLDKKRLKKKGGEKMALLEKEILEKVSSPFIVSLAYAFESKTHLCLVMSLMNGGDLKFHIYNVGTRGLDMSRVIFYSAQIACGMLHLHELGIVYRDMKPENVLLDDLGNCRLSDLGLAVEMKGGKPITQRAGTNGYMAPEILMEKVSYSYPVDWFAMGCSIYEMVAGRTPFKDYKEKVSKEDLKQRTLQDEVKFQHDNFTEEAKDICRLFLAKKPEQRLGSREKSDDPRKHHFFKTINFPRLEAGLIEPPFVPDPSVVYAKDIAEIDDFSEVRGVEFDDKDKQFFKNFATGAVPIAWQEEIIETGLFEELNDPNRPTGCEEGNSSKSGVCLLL
Method: as §1

MEK1 = target: T4, MEK1 (Homo sapiens, UniProt Q02750)
T4 construct: purchased Reaction Biology Europe GmbH (formerly ProQinase)
T4 sequence (Q02750 whole entry): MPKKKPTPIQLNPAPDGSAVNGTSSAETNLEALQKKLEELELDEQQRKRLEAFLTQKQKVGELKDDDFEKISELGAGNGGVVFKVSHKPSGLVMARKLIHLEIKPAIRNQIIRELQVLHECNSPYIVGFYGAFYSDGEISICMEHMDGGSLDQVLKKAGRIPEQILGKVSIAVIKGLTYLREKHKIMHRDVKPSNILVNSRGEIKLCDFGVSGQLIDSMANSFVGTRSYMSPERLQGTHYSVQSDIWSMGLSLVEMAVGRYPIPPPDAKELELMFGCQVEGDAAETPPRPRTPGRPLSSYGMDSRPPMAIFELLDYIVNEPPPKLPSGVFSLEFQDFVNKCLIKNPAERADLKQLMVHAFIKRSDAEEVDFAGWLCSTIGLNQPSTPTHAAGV
Method: as §1

PKCϴ = target: T5, PKCϴ (Homo sapiens, UniProt Q04759)
T5 construct: purchased Reaction Biology Europe GmbH (formerly ProQinase)
T5 sequence (Q04759 whole entry): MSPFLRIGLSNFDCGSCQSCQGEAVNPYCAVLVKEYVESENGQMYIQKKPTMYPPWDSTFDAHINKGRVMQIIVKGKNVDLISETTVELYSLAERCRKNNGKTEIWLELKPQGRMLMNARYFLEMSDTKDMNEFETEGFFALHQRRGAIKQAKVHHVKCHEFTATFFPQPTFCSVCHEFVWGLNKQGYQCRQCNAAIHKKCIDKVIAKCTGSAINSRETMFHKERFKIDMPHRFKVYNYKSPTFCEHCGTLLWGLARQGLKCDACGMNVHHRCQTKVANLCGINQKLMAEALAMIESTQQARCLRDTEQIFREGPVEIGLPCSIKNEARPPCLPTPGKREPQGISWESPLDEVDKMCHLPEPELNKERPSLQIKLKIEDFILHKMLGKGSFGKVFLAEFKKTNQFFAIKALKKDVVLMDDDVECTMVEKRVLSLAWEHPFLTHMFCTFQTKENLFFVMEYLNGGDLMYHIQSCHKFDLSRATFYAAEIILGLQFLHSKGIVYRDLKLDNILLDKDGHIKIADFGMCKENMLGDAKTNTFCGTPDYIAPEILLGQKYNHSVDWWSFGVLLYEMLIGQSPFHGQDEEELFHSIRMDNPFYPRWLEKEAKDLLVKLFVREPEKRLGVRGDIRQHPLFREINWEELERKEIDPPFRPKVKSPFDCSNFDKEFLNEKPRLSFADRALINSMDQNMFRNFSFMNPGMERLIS
Method: as §1

RIPK5 = target: T6, RIPK5 (Homo sapiens, UniProt Q6XUX3)
T6 construct: purchased Reaction Biology Europe GmbH (formerly ProQinase)
T6 sequence (Q6XUX3 1-929): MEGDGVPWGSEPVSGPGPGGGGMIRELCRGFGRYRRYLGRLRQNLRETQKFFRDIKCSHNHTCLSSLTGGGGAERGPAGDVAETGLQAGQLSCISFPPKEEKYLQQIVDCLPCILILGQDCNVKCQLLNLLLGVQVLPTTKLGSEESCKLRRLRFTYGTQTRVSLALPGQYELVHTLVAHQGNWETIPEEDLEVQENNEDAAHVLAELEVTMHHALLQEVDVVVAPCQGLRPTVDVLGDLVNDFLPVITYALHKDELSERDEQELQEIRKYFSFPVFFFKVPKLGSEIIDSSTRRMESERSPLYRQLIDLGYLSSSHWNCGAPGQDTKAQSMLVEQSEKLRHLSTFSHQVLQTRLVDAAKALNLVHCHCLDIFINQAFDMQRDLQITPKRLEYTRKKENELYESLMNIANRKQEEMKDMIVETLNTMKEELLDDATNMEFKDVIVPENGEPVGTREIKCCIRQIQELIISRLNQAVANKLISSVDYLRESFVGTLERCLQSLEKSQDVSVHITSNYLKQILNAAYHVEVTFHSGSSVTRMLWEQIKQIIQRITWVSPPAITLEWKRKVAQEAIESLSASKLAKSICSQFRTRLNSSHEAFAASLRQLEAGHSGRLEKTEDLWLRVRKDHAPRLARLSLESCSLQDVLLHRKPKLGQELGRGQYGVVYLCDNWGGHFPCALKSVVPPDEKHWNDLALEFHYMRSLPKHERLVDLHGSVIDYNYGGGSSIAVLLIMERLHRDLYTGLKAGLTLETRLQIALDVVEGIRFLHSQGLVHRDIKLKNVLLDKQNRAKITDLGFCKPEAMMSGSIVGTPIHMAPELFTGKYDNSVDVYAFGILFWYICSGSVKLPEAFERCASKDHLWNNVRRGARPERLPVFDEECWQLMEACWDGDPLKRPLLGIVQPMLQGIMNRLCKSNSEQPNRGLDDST
Method: as §1

TXK = target: T7, TXK (Homo sapiens, UniProt P42681)
T7 construct: purchased Reaction Biology Europe GmbH (formerly ProQinase)
T7 sequence (P42681 1-527): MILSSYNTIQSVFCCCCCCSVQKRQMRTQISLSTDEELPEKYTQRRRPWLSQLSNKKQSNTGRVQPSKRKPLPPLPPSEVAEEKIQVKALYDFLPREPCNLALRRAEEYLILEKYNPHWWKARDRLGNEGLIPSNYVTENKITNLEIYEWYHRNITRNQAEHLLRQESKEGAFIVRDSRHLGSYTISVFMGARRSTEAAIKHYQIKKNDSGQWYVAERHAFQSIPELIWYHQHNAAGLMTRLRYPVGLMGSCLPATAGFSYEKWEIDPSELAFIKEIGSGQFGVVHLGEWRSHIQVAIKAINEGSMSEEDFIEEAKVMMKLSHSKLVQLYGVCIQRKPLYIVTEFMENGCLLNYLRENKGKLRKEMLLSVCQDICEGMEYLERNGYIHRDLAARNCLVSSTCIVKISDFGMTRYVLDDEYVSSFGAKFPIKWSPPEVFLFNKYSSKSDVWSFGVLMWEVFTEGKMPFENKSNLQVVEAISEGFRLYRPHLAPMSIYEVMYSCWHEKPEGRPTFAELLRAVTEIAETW
Method: as §1

T1 sequence (P32298 whole entry): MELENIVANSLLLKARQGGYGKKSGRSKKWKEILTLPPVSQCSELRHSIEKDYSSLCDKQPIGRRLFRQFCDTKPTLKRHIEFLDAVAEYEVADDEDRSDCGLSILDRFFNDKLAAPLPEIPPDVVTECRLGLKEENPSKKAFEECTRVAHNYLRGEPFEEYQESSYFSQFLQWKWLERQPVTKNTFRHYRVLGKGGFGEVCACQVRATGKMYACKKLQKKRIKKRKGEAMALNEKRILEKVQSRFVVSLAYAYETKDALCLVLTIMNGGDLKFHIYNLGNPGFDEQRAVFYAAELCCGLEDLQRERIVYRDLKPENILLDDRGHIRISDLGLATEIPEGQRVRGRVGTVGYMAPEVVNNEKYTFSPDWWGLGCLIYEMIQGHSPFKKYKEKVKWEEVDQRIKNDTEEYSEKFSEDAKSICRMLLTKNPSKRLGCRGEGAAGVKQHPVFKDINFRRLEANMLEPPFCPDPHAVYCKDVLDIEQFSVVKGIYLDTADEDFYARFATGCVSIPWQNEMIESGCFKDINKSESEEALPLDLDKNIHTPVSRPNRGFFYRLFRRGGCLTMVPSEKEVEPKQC

Structure (SMILES)	residual kinase activity (GRK4; 0.3 µM)	residual kinase activity (ACVR1; 0.3 µM)	residual kinase activity (GRK7; 0.3 µM)	residual kinase activity (MEK1; 0.3 µM)	residual kinase activity (PKCϴ; 0.3 µM)	residual kinase activity (RIPK5; 0.3 µM)	residual kinase activity (TXK; 0.3 µM)	further results
COc1ccnc2[nH]cc(-c3cc(N)nc(N)c3)c12 [meriolin 16]	90 % of control	72 % of control	78 % of control	102 % of control	7 % of control	86 % of control	90 % of control	residual kinase activity (GRK4; 0.03 µM): 101 % of control; residual kinase activity (ACVR1; 0.03 µM): 89 % of control; residual kinase activity (GRK7; 0.03 µM): 105 % of control; residual kinase activity (MEK1; 0.03 µM): 108 % of control; residual kinase activity (PKCϴ; 0.03 µM): 40 % of control; residual kinase activity (RIPK5; 0.03 µM): 101 % of control; residual kinase activity (TXK; 0.03 µM): 100 % of control
c1ccc(CNc2cc(-c3c[nH]c4ncccc34)ccn2)cc1 [meriolin 36]	108 % of control	24 % of control	94 % of control	35 % of control	2 % of control	58 % of control	84 % of control	residual kinase activity (GRK4; 3 µM): 95 % of control; residual kinase activity (ACVR1; 3 µM): 1 % of control; residual kinase activity (GRK7; 3 µM): 48 % of control; residual kinase activity (MEK1; 3 µM): 6 % of control; residual kinase activity (PKCϴ; 3 µM): 1 % of control; residual kinase activity (RIPK5; 3 µM): 16 % of control; residual kinase activity (TXK; 3 µM): 35 % of control

— PMC11167047 (Cell Death Discovery, 2024)
